Consider 1 molecule from ChEMBL document CHEMBL4196047, “Discovery and evolution of aloperine derivatives as novel anti-filovirus agents through targeting entry stage” (Eur J Med Chem, 2018).

The test system of data set [1] is Ebolavirus. Nature of the data set: microbe, parasite or virus in culture. It is filed as functional, cell-based. Conditions: Orthoebolavirus, HEK-293T.
In data set [2] the target is Cathepsin B (Homo sapiens) (UniProt P07858). In words: Inhibition of cathepsin B in HEK293 cells using N-benzyloxycarbonyl-L-arginyl-L-arginine-7-amido-4-methylcoumarin as substrate. It is filed as cell-based.
Data set [3] deals with Marburgvirus. In words: microbe, parasite or virus in culture. Conditions: Orthomarburgvirus, HEK-293T. It is filed as functional, organism-based.
In data set [4] the test system is Ebolavirus. In words: Antiviral activity against HIV1 pseudotyped EBOV infected in HEK293T cells assessed as inhibition of late stage viral entry at 25 uM treated for 1 hr before infection measured after 72 hrs by luciferase reporter gene assay relative to control. Conditions: Orthoebolavirus, HEK-293T. In kind it is functional. In general terms: Reporter assays use an easily measured gene product as a stand-in for the process of interest.

A short description of data set [5]: in vitro. Conditions: human, HEK293T cells.
Data set [6] relates to Ebolavirus. Nature of the data set: Antiviral activity against HIV1 pseudotyped EBOV infected in HEK293T cells assessed as inhibition of late stage viral entry at 25 uM treated for 1 hr post infection measured after 72 hrs by luciferase reporter gene assay relative to control. It is filed as functional. Conditions: Orthoebolavirus, HEK-293T.
The subject of data set [7] is Vesicular stomatitis virus. In words: microbe, parasite or virus in culture. In kind it is functional, organism-based. Conditions: HEK-293T.
Data set [8] is described as follows: in vitro. Conditions: human, HEK293T cells. The source holds these as a separate data set.
Data set [9] can be described thus: Toxicity in iv dosed Kunming mouse administered as single dose measured for 7 days. In kind it is organism-based. Conditions: in vivo.
Data set [10] is described as follows: AUC (0 to t) in BALB/c mouse at 25 mg/kg, po. In kind it is ADME, organism-based. Conditions: in vivo.
The next data set concerns HEK-293T. In words: Inhibition of endosomal acidification in HEK293T cells at 20 to 40 uM after 1 hr by LysoTracker Red dye-based confocal fluorescence microscopic analysis. Conditions: Homo sapiens. It is filed as functional, cell-based.
A short description of data set [11]: Half life in BALB/c mouse at 25 mg/kg, po. In kind it is ADME, organism-based. Conditions: in vivo.
A short description of data set [12]: MRT in BALB/c mouse at 25 mg/kg, po. It is filed as ADME, organism-based. Conditions: in vivo.
A short description of data set [13]: Tmax in BALB/c mouse at 25 mg/kg, po. It is filed as ADME, organism-based. Conditions: in vivo.
Data set [14] is described as follows: Toxicity in ip dosed Kunming mouse administered as single dose measured for 7 days. Conditions: in vivo. It is filed as organism-based.
The nature of data set [15]: AUC (0 to infinity) in BALB/c mouse at 25 mg/kg, po. It is filed as ADME, organism-based. More on the design: dose 25 mg/kg, time infinity, route oral. Conditions: in vivo.
A short description of data set [16]: Cmax in BALB/c mouse at 25 mg/kg, po. It is filed as ADME, organism-based. More on the design: dose 25 mg/kg, route oral. Conditions: in vivo.
Data set [17] in a line: Toxicity in ig dosed Kunming mouse administered as single dose measured for 7 days. It is filed as organism-based. Conditions: in vivo, po.
The nature of data set [18]: in vitro. Conditions: human, HEK293T cells. The source holds these as a separate data set.
Data set [19] has as its system Marburgvirus. Nature of the data set: Antiviral activity against HIV1 pseudotyped MARV infected in BALB/c mouse at 100 ug, iv and ip measured at day 4 by bioluminescence assay relative to control. It is filed as functional.
The target in data set [20] is Procathepsin L (Homo sapiens) (UniProt P07711). Nature of the data set: Inhibition of cathepsin L in HEK293 cells using N-benzyloxycarbonyl-L-phenylalanyl-L-arginine-7-amido-4-methylcoumarin as substrate. It is filed as cell-based.
Procathepsin L (Homo sapiens), sequence (P07711 114-333 limits assumed): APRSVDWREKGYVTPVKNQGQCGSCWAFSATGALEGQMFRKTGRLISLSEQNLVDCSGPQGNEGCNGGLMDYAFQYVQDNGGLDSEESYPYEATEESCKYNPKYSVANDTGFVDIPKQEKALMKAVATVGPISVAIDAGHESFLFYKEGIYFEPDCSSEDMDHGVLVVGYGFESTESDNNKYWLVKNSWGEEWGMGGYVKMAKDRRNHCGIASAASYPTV
Data set [21] concerns Ebolavirus. In words: Antiviral activity against HIV1 pseudotyped EBOV infected in HEK293T cells assessed as inhibition of late stage viral entry at 25 uM treated during infection measured after 72 hrs by luciferase reporter gene assay relative to control. In kind it is functional. Conditions: Orthoebolavirus, HEK-293T.

Each structure is given as a SMILES string. Activity calls are given as the source filed them. The calls are words filed in the database; no cut-off is given here. Bounds are passed on as bounds.

The term EC50 denotes the concentration at which the effect is half-maximal. Higher therefore signals weaker potency. What is called inhibition is how much of the control response was suppressed. As usually defined, the CC50 is the concentration that lowers cell viability or growth by half. Low values mean harm at low concentration, high ones better tolerance by the cells. What is called LD50 is the dose expected to kill half of the subjects tested. A lower LD50 goes with a more toxic substance. One may read the AUC(0-t) as the area under the concentration-time curve up to a stated or last time point. High values mean more exposure, low ones less exposure. As a reminder, the half-life is the time in which the quantity being followed falls by half. Higher therefore signals slow loss. The term MRT denotes the average time that molecules of a dose stay in the body. As usually defined, the Tmax is the time from dosing to the highest level. By AUC(0-inf) is commonly meant the area under the concentration-time curve extrapolated to infinity. A lower AUC(0-inf) goes with low exposure. For orientation: Cmax means the highest concentration seen after dosing. On to `Clc1ccc(CN2CCCC3=C[C@H]4C[C@H](CN5CCCC[C@H]45)[C@@H]32)cc1Cl`, for which the EC50 in the data set with Ebolavirus [1] was 4.8 µM; in the data set on Marburgvirus [3] it was 7.1 µM; in data set [7] it was over 200 µM. In data set [2], the inhibition result is “Active”. In addition, the results for the inhibition at 25 µM in the data set on Ebolavirus [4], in the data set on Ebolavirus [6] and with Ebolavirus [21] were under 38%, 85% and 23 to 66%, respectively. The selectivity ratio in “in vitro [5]” was over 41.7; in the data set “in vitro [18]”, over 28.2. In the data set “in vitro [8]”, this molecule yielded a cytotoxic concentration (CC50) of over 200 µM. Further, the LD50 at 168 h is 28.3 mg/kg in [9], over 100 mg/kg in data set [14] and 458 mg/kg in data set [17]. The molecule further yielded an area under the curve AUC(0-t) in [10] of 2.74 µM·h. The inhibition entry (in the data set on HEK-293T; in data set [20]) was “inactive” throughout. The half-life in data set [11] was 4.14 h. In [12], this molecule showed an MRT of 4.89 h. Also, the Tmax in [13] worked out at 0.67 h. This molecule also showed an AUC(0-inf) in [15] of 4.89 µM·h. The molecule further gave a Cmax in data set [16] of 290 nM. The molecule also returned an Activity in the data set on Marburgvirus [19] of 45%.
